Key:
[1] = species on record: Mus musculus; test: Analgesic response measured as percentage change in reaction time (dose 5 ug given intracervically) after 5 min in mice; assay type: functional
[2] = target: T1, Aminopeptidase N (Rattus norvegicus, UniProt P15684); test: (§1) Compound was evaluated for its inhibitory potency against purified membrane bound rat brain Aminopeptidase M using [3H]Leu-enkephalin as substrate; assay type: functional
T1 sequence (P15684 whole entry): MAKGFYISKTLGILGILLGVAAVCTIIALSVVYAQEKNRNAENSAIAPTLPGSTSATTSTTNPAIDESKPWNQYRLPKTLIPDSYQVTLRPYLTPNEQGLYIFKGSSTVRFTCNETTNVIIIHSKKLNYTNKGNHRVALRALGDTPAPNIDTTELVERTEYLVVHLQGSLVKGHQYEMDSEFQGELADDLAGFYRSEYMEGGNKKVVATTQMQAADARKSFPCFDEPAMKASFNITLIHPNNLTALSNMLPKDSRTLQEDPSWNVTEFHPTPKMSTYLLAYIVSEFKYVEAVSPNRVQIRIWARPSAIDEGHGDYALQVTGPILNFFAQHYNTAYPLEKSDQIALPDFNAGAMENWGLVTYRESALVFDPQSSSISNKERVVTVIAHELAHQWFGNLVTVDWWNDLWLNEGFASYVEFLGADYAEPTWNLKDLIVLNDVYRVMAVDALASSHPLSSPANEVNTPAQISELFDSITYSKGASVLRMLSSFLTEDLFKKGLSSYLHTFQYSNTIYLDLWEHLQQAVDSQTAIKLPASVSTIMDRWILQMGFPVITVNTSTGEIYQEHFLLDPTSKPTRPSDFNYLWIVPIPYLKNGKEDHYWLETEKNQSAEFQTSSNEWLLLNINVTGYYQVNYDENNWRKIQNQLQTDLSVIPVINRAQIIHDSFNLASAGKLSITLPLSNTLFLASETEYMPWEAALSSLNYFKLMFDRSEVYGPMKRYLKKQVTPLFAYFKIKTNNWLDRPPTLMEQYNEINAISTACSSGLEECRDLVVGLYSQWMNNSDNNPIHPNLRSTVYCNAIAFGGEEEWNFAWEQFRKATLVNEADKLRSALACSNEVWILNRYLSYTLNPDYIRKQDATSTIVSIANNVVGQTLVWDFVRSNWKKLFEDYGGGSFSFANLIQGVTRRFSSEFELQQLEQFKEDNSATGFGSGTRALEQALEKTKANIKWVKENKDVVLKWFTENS

[3] = (§2) Compound was evaluated for its inhibitory potency against purified membrane bound rat brain APs; assay type: functional
[4] = species on record: Mus musculus; test: Analgesic response measured as percentage change in reaction time (dose 5 ug given intracervically) after 30 min in mice; assay type: functional
[5] = species on record: Mus musculus; test: Analgesic response measured as percentage change in reaction time (dose given intracervically) after 60 min in mice; assay type: functional
[6] = target: T2, Aminopeptidase B (Rattus norvegicus, UniProt O09175); test: (§3) Compound was evaluated for its inhibitory potency against purified membrane bound rat brain Aminopeptidase B using L-lysine-beta napthylamide as substrate; assay type: functional
T2 sequence (O09175 whole entry): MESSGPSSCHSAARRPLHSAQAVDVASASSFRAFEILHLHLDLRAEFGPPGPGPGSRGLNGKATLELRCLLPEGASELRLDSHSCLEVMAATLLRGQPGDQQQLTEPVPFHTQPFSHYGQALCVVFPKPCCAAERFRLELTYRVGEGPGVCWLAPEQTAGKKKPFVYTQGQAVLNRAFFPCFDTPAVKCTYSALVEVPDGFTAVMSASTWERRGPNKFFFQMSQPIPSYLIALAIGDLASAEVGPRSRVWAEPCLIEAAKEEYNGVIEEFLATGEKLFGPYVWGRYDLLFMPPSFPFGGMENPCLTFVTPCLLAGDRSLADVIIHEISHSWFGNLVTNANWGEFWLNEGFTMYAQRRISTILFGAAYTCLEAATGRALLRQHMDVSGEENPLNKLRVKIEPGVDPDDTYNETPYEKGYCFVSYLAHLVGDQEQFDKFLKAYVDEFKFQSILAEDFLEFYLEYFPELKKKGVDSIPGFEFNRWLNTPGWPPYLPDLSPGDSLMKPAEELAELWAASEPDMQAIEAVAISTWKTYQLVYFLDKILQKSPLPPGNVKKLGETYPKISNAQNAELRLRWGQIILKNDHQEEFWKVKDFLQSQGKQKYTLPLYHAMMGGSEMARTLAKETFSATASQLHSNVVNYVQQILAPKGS

[7] = target: T2, Aminopeptidase B; test: as §3
[8] = species on record: Mus musculus; test: Analgesic response measured as percentage change in reaction time (dose 5 ug given intracervically) after 60 min in mice; assay type: functional
[9] = target: T1, Aminopeptidase N; test: as §1
[10] = target: T1, Aminopeptidase N; test: Compound was evaluated for its inhibitory potency against purified membrane bound rat brain Aminopeptidase M (AP-M) using [3H]Leu-enkephalin as substrate
[11] = target: T2, Aminopeptidase B; test: Compound was evaluated for its inhibitory potency against purified membrane bound rat brain Aminopeptidase B (AP-B) using L-lysine-beta napthylamide as substrate
[12] = target: T1, Aminopeptidase N; test: Inhibitory potency against purified membrane bound rat brain Aminopeptidase M using [3H]Leu-enkephalin as substrate; assay type: functional
[13] = target: T2, Aminopeptidase B; test: Inhibitory potency against purified membrane bound rat brain Aminopeptidase B using L-lysine-beta napthylamide as substrate; assay type: functional
[14] = as §2; assay type: tissue-based
[15] = species on record: Mus musculus; test: Analgesic response measured as percentage change in reaction time (dose 100 ug given intracervically) after 60 min in mice; assay type: functional
[16] = species on record: Mus musculus; test: Analgesic response measured as percentage change in reaction time (dose 100 ug given intracervically) after 30 min in mice; assay type: functional
[17] = species on record: Mus musculus; test: Analgesic response measured as percentage change in reaction time (dose 25 ug given intracervically) after 30 min in mice; assay type: functional
[18] = species on record: Mus musculus; test: Analgesic response measured as percentage change in reaction time (dose 25 ug given intracervically) after 5 min in mice; assay type: functional
[19] = species on record: Mus musculus; test: Analgesic response measured as percentage change in reaction time (dose 100 ug given intracervically) after 5 min in mice; assay type: functional
[20] = species on record: Mus musculus; test: Analgesic response measured as percentage change in reaction time (dose 25 ug given intracervically) after 60 min in mice; assay type: functional
[21] = species on record: Mus musculus; test: Analgesic response measured as percentage change in reaction time (dose 1 ug given intracervically) after 60 min in mice; assay type: functional
[22] = species on record: Mus musculus; test: Analgesic response measured as percentage change in reaction time (dose 1 ug given intracervically) after 30 min in mice; assay type: functional
[23] = species on record: Mus musculus; test: Analgesic response measured as percentage change in reaction time (dose 1 ug given intracervically) after 5 min in mice; assay type: functional

| Compound | Change [1] [%] | IC50 [2] [µM] | Change [4] [%] | IC50 [6] [µM] | Change [8] [%] | further results |
| --- | --- | --- | --- | --- | --- | --- |
| COC(=O)[C@H](Cc1c[nH]c2ccccc12)NC(=O)[C@@H](O)[C@H](N)CCCCN.Cl.Cl | <60 | 10.2 | 17 | > 1000 | – | IC50 [3]: 0.21 µM; Change [5]: 14% |
| COC(=O)[C@H](CC(C)C)NC(=O)[C@@H](O)[C@H](N)CCCCN | <62 | – | 21 | – | 23 | IC50 [7]: 481 µM; IC50 [9]: 201 µM |
| COC(=O)[C@H](CC(C)C)NC(=O)[C@@H](O)[C@@H](N)CCCCN.COC(=O)[C@H](CC(C)C)NC(=O)[C@H](O)[C@@H](N)CCCCN | -1 | – | 10 | – | 15 | IC50 [10]: > 1000 µM; IC50 [11]: 500 µM |
| COC(=O)[C@@H](Cc1c[nH]c2ccccc12)NC(=O)[C@H](O)[C@@H](N)CCCCN | 22 | > 1000 | -1 | > 1000 | 2 | – |
| COC(=O)[C@@H](Cc1c[nH]c2ccccc12)NC(=O)[C@@H](O)[C@H](N)CCCCN.COC(=O)[C@@H](Cc1c[nH]c2ccccc12)NC(=O)[C@H](O)[C@H](N)CCCCN | 10 | – | 1 | – | 5 | IC50 [12]: 826 µM; IC50 [13]: > 1000 µM |
| CC(C)C[C@H](NC(=O)[C@@H](O)[C@H](N)Cc1ccccc1)C(=O)O [UBENIMEX] | – | – | – | – | – | IC50 [14]: 0.3 µM; Change [15]: 59%; Change [16]: 41%; Change [17]: 3%; Change [18]: 26%; IC50 [7]: 6 µM; Change [19]: 11%; IC50 [9]: 19.4 µM; Change [20]: -3% |
| COC(=O)[C@H](Cc1c[nH]c2ccccc12)NC(=O)[C@H](O)[C@H](N)CCCCN | – | 502 | – | > 1000 | – | IC50 [3]: 45.5 µM |
| COC(=O)[C@@H](Cc1c(Sc2ccccc2[N+](=O)[O-])[nH]c2ccccc12)NC(=O)C(O)[C@H](N)CCCCN (stereo partly specified) | 80 | – | 56 | – | 37 | Change [21]: -2%; Change [22]: 13%; IC50 [10]: 91.2 µM; Change [23]: 19%; IC50 [11]: 486 µM |

Reference: ChEMBL document CHEMBL1125394, “Analgesic dipeptide derivatives. 7. 3,7-Diamino-2-hydroxyheptanoic acid (DAHHA) containing dipeptide analogues of the analgesic compound H-Lys-Trp(Nps)-OMe” (J Med Chem, 1992)
